Measured values reported in patent US11697648B2, “Fused pyrimidine pyridinone compounds as JAK inhibitors” (THERAVANCE BIOPHARMA R&D IP, LLC, priority 2019, dated 2023).

How the values were obtained:
JAK1 = JAK1 (Homo sapiens (Human), UniProt P23458); experiment: Biochemical JAK1 kinase assay (LanthaScreen)
In short: (§1)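 GST-JAK + GFP-STAT1 peptide, HEPES pH 7.5/MgCl2/EGTA/Brij-35 buffer; cpd preincubation 1 h RT; ATP start, 1 h RT; stop with 10 mM EDTA + 2 nM Tb-anti-pSTAT1; TR-FRET 520/495. 4-parameter IC50 → pKi (Cheng-Prusoff).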

JAK2 = JAK2 (Homo sapiens (Human), UniProt O60674); experiment: Biochemical JAK2 kinase assay (LanthaScreen)
In short: as §1

JAK3 = JAK3 (Homo sapiens (Human), UniProt P52333); experiment: Biochemical JAK3 kinase assay (LanthaScreen); details: for JAK3 (pKi)-JAK1 (pKi): selectivity JAK3 over JAK1, difference of pKi
In short: as §1

Tyk2 = Tyk2 (Homo sapiens (Human), UniProt P29597); experiment: Biochemical Tyk2 kinase assay (LanthaScreen)
In short: as §1

[1] = system: IL-2 stimulated STAT5 phosphorylation in Tall-1 human T cell line (JAK3); experiment: Cellular JAK3 potency assay: inhibition of IL-2 stimulated pSTAT5 in Tall-1 T cells; type: cell-based; details: IL-2 stimulated pSTAT5, Tall-1 T cells
In short: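 AlphaLISA SureFire Ultra measures STAT5 Tyr694/699 phosphorylation in lysed Tall-1 human T cells. Cells were exposed to compound for 1 h at 37 °C before a 30 min IL-2 challenge (300 ng/ml final). Values are pIC50 means with standard deviation from signal-versus-concentration curves.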

Caco-2 cell monolayers = experiment: Caco-2 permeation assay; type: in vitro ADME; details: 5 μM, A-B direction, with Verapamil (25 μM)
In short: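 Passive A-to-B permeability with P-gp inhibited by verapamil (25 μM); compound at 5 μM, n=2. Both compartments sampled at t0 and t120 and quantified by LC-MS/MS, giving apparent permeability in cm/sec from flux, area and concentration.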

Chain of JAK2 (O60674 whole entry): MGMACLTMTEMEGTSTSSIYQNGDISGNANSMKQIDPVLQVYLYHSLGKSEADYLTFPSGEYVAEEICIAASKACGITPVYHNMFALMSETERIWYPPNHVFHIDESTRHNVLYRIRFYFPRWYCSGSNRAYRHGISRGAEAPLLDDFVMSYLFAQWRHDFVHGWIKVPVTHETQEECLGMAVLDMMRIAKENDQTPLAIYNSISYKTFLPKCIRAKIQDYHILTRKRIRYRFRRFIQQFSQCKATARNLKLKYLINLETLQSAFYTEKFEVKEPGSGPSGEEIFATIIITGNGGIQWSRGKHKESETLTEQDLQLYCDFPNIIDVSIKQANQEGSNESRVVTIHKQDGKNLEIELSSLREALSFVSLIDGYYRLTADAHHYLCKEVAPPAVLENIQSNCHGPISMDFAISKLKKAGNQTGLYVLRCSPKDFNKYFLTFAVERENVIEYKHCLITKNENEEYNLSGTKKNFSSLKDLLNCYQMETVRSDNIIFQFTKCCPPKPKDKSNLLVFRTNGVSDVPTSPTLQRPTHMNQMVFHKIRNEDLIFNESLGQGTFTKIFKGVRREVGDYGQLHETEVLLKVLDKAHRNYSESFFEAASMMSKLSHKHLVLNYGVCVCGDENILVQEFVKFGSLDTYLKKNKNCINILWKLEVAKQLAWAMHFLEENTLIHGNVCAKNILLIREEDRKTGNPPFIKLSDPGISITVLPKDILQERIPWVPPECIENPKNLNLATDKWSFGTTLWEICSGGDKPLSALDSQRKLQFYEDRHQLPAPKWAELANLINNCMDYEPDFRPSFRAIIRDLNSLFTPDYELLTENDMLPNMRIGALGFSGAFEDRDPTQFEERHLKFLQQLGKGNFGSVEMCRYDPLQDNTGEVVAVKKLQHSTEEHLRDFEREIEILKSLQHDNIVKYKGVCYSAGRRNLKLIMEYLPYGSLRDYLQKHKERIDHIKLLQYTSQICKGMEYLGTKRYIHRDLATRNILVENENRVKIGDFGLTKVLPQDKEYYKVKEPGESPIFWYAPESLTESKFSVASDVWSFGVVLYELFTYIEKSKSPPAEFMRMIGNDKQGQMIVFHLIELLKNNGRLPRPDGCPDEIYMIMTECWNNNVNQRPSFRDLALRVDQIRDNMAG
Chain of JAK3 (P52333 whole entry): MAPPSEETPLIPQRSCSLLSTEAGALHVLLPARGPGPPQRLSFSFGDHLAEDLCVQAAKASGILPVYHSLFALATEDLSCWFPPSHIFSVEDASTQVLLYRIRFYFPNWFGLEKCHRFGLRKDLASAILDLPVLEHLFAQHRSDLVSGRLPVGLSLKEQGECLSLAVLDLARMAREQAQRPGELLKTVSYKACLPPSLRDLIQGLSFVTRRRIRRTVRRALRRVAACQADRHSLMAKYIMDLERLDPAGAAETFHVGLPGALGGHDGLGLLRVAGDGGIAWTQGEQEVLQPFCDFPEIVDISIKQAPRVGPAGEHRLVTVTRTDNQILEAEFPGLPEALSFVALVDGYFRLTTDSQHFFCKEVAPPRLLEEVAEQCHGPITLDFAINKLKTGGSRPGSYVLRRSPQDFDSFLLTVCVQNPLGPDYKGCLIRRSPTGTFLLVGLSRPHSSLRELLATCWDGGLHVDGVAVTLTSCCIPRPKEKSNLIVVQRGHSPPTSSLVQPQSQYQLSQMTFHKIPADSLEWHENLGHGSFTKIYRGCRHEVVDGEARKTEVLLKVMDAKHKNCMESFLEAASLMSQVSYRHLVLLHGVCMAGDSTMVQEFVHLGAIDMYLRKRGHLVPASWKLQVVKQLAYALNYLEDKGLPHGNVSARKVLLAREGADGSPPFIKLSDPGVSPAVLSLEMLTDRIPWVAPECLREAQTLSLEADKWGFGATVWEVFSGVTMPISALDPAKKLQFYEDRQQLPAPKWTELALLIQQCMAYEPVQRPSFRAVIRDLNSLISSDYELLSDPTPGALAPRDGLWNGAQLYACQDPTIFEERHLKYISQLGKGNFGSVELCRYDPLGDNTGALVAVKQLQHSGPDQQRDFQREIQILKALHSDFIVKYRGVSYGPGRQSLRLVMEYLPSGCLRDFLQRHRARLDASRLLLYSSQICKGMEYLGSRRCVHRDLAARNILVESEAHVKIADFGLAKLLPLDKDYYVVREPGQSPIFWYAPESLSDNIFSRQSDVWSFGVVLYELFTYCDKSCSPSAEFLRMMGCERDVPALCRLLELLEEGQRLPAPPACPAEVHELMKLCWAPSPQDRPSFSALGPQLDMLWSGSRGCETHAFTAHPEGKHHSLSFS
Chain of Tyk2 (P29597 whole entry): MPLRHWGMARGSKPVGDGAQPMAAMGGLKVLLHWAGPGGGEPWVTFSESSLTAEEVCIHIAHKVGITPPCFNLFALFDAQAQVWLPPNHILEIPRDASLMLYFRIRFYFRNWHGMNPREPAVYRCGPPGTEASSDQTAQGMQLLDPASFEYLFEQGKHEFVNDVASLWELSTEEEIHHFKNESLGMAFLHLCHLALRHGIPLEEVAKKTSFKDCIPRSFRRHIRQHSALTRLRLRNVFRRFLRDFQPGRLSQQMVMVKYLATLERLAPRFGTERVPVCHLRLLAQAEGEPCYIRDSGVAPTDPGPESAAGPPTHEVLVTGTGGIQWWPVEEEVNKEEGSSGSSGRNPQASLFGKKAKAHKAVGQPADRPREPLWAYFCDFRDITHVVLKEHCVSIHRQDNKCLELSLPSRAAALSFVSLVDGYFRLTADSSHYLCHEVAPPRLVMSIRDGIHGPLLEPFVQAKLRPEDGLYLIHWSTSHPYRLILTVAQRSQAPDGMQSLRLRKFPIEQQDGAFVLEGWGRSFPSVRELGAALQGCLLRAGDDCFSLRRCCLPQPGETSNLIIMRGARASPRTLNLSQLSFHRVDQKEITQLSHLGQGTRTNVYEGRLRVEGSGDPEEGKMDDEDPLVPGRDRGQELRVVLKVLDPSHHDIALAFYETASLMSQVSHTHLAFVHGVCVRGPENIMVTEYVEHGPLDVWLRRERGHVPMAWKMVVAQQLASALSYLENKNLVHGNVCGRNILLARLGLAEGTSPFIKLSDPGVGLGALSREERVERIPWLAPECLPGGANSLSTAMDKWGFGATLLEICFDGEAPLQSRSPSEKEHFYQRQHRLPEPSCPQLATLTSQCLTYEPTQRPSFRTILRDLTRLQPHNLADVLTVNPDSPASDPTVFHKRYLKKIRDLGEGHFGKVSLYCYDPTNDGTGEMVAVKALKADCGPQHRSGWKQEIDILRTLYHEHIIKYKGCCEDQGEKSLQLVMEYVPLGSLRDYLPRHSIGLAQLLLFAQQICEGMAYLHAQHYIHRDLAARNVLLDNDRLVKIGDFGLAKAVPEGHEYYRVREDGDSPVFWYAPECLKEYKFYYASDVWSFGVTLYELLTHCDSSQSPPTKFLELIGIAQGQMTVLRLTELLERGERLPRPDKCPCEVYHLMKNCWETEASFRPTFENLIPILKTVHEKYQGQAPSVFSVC
Chain of JAK1 (P23458 whole entry): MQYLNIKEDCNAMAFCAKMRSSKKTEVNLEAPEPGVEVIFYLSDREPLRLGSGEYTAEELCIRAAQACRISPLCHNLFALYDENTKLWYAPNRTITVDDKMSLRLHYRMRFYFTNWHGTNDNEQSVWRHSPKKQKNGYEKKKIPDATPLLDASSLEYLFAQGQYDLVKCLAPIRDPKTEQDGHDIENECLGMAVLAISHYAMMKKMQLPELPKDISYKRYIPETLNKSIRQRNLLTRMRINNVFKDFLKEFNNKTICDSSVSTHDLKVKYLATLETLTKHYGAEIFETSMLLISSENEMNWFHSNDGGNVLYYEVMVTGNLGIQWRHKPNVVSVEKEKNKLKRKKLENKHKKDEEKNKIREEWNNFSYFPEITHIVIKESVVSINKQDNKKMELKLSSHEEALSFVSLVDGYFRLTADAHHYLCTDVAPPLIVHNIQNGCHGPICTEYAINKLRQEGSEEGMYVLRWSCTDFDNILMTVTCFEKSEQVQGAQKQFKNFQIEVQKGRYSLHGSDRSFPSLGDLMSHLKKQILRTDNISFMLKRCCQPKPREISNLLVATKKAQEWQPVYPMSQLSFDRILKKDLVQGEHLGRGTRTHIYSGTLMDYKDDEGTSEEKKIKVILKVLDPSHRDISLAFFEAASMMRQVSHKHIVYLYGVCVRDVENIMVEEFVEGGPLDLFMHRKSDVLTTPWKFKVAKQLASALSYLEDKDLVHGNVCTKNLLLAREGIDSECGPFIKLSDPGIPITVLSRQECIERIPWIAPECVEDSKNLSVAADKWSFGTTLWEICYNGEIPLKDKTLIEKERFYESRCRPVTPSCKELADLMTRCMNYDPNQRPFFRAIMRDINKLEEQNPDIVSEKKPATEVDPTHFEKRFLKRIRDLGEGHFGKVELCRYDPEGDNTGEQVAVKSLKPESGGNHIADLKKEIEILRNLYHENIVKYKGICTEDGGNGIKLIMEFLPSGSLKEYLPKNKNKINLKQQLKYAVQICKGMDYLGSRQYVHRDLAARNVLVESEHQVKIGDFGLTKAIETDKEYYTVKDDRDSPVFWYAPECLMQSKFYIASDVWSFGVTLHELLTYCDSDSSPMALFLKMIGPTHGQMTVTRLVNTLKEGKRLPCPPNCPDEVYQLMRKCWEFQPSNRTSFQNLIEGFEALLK

## C=CC(=O)N1CC(CCn2c(=O)ccc3cnc(Nc4ccc(N5CCN(C)CC5)c(O)c4)nc32)C1 [Example 136]
JAK1
  JAK 1 (pKi): E (E represents a pKi value of 7 or below (Ki of 100 nM or above))
JAK2
  JAK 2 (pKi): E (E represents a pKi value of 7 or below (Ki of 100 nM or above))
JAK3
  JAK 3 (pKi): B (B represents pKi value between 9 and 10 (Ki between 1 nM and 0.1 nM))
  JAK3 (pKi)-JAK1 (pKi): A (A represents a value of 3 or above)
Tyk2
  Tyk 2 (pKi): E (E represents a pKi value of 7 or below (Ki of 100 nM or above))
[1]
  Tall-1 (pIC50): A (A represents a pIC50 value≥7.5 (IC50≤32 nM))
Caco-2 cell monolayers
  Caco Kp: A (A represents a value below 5×10^−6 cm/sec)

## C=CC(=O)N1CC(CCn2c(=O)ccc3cnc(Nc4ccc(N5CCN(C)CC5)cn4)nc32)C1 [Example 137]
JAK1
  JAK 1 (pKi): E (E represents a pKi value of 7 or below (Ki of 100 nM or above))
JAK2
  JAK 2 (pKi): E (E represents a pKi value of 7 or below (Ki of 100 nM or above))
JAK3
  JAK 3 (pKi): B (B represents pKi value between 9 and 10 (Ki between 1 nM and 0.1 nM))
  JAK3 (pKi)-JAK1 (pKi): A (A represents a value of 3 or above)
Tyk2
  Tyk 2 (pKi): E (E represents a pKi value of 7 or below (Ki of 100 nM or above))
[1]
  Tall-1 (pIC50): B (B represents a pC50 value between 6.7 (included) and 7.5 (IC50 between 200 nM and 32 nM))
Caco-2 cell monolayers
  Caco Kp: A (A represents a value below 5×10^−6 cm/sec)

## C=CC(=O)N1CC(CCn2c(=O)ccc3cnc(Nc4ccc(N5CCN(C(=O)C(C)(C)O)CC5)cc4)nc32)C1 [Example 138]
JAK1
  JAK 1 (pKi): E (E represents a pKi value of 7 or below (Ki of 100 nM or above))
JAK2
  JAK 2 (pKi): D (D represents a pKi value between 7 and 8 (Ki between 100 nM and 10 nM))
JAK3
  JAK 3 (pKi): A (A represents a pKi value≥10 (Ki≤0.1 nM))
  JAK3 (pKi)-JAK1 (pKi): A (A represents a value of 3 or above)
Tyk2
  Tyk 2 (pKi): E (E represents a pKi value of 7 or below (Ki of 100 nM or above))
[1]
  Tall-1 (pIC50): B (B represents a pC50 value between 6.7 (included) and 7.5 (IC50 between 200 nM and 32 nM))
Caco-2 cell monolayers
  Caco Kp: A (A represents a value below 5×10^−6 cm/sec)

## C=CC(=O)N1CC(CCn2c(=O)ccc3cnc(Nc4ccc(N5CCN(C(=O)CC[S+](C)[O-])CC5)cc4)nc32)C1 (centres unmarked) [Example 139]
JAK1
  JAK 1 (pKi): E (E represents a pKi value of 7 or below (Ki of 100 nM or above))
JAK2
  JAK 2 (pKi): E (E represents a pKi value of 7 or below (Ki of 100 nM or above))
JAK3
  JAK 3 (pKi): A (A represents a pKi value≥10 (Ki≤0.1 nM))
  JAK3 (pKi)-JAK1 (pKi): A (A represents a value of 3 or above)
Tyk2
  Tyk 2 (pKi): E (E represents a pKi value of 7 or below (Ki of 100 nM or above))
[1]
  Tall-1 (pIC50): C (C represents a pIC50 value between 6 and 6.7 (IC50 between 1 μM and 200 nM))
Caco-2 cell monolayers
  Caco Kp: A (A represents a value below 5×10^−6 cm/sec)

## C=CC(=O)N1CC(CCn2c(=O)ccc3cnc(Nc4ccc(N5CCN(C(=O)CCS(C)(=O)=O)CC5)cc4)nc32)C1 [Example 140]
JAK1
  JAK 1 (pKi): E (E represents a pKi value of 7 or below (Ki of 100 nM or above))
JAK2
  JAK 2 (pKi): E (E represents a pKi value of 7 or below (Ki of 100 nM or above))
JAK3
  JAK 3 (pKi): A (A represents a pKi value≥10 (Ki≤0.1 nM))
  JAK3 (pKi)-JAK1 (pKi): A (A represents a value of 3 or above)
Tyk2
  Tyk 2 (pKi): E (E represents a pKi value of 7 or below (Ki of 100 nM or above))
[1]
  Tall-1 (pIC50): C (C represents a pIC50 value between 6 and 6.7 (IC50 between 1 μM and 200 nM))
Caco-2 cell monolayers
  Caco Kp: A (A represents a value below 5×10^−6 cm/sec)

## C=CC(=O)N1CC(CCn2c(=O)ccc3cnc(Nc4ccc(N5CCN(C)CC5)cc4F)nc32)C1 [Example 141]
JAK1
  JAK 1 (pKi): E (E represents a pKi value of 7 or below (Ki of 100 nM or above))
JAK2
  JAK 2 (pKi): E (E represents a pKi value of 7 or below (Ki of 100 nM or above))
JAK3
  JAK 3 (pKi): B (B represents pKi value between 9 and 10 (Ki between 1 nM and 0.1 nM))
  JAK3 (pKi)-JAK1 (pKi): A (A represents a value of 3 or above)
Tyk2
  Tyk 2 (pKi): E (E represents a pKi value of 7 or below (Ki of 100 nM or above))
[1]
  Tall-1 (pIC50): B (B represents a pC50 value between 6.7 (included) and 7.5 (IC50 between 200 nM and 32 nM))
Caco-2 cell monolayers
  Caco Kp: C (C represents a value between 10×10^−6 and 30×10^−6 cm/sec)

## C=CC(=O)N1CC(CCn2c(=O)ccc3cnc(Nc4ccc(N5CCC(C)CC5)cc4)nc32)C1 [Example 142]
JAK1
  JAK 1 (pKi): E (E represents a pKi value of 7 or below (Ki of 100 nM or above))
JAK2
  JAK 2 (pKi): E (E represents a pKi value of 7 or below (Ki of 100 nM or above))
JAK3
  JAK 3 (pKi): A (A represents a pKi value≥10 (Ki≤0.1 nM))
  JAK3 (pKi)-JAK1 (pKi): A (A represents a value of 3 or above)
Tyk2
  Tyk 2 (pKi): E (E represents a pKi value of 7 or below (Ki of 100 nM or above))
[1]
  Tall-1 (pIC50): B (B represents a pC50 value between 6.7 (included) and 7.5 (IC50 between 200 nM and 32 nM))
Caco-2 cell monolayers
  Caco Kp: C (C represents a value between 10×10^−6 and 30×10^−6 cm/sec)

## C=CC(=O)N1CC(CCn2c(=O)ccc3cnc(Nc4ccc(N5CCCCC5)cc4)nc32)C1 [Example 143]
JAK1
  JAK 1 (pKi): E (E represents a pKi value of 7 or below (Ki of 100 nM or above))
JAK2
  JAK 2 (pKi): E (E represents a pKi value of 7 or below (Ki of 100 nM or above))
JAK3
  JAK 3 (pKi): A (A represents a pKi value≥10 (Ki≤0.1 nM))
  JAK3 (pKi)-JAK1 (pKi): A (A represents a value of 3 or above)
Tyk2
  Tyk 2 (pKi): E (E represents a pKi value of 7 or below (Ki of 100 nM or above))
[1]
  Tall-1 (pIC50): B (B represents a pC50 value between 6.7 (included) and 7.5 (IC50 between 200 nM and 32 nM))
Caco-2 cell monolayers
  Caco Kp: C (C represents a value between 10×10^−6 and 30×10^−6 cm/sec)

## C=CC(=O)N1CCN(CCn2c(=O)ccc3cnc(Nc4ccc(N5CCN(C(=O)OC)CC5)cc4)nc32)CC1 [Example 145]
JAK1
  JAK 1 (pKi): E (E represents a pKi value of 7 or below (Ki of 100 nM or above))
JAK2
  JAK 2 (pKi): E (E represents a pKi value of 7 or below (Ki of 100 nM or above))
JAK3
  JAK 3 (pKi): B (B represents pKi value between 9 and 10 (Ki between 1 nM and 0.1 nM))
  JAK3 (pKi)-JAK1 (pKi): A (A represents a value of 3 or above)
Tyk2
  Tyk 2 (pKi): E (E represents a pKi value of 7 or below (Ki of 100 nM or above))
[1]
  Tall-1 (pIC50): B (B represents a pC50 value between 6.7 (included) and 7.5 (IC50 between 200 nM and 32 nM))
Caco-2 cell monolayers
  Caco Kp: B (B represents a value between 5×10^−6 and 10×10^−6 cm/sec)

## C=CC(=O)N1CC(CCn2c(=O)ccc3cnc(Nc4ccc(N5CCN(C(=O)CS(C)(=O)=O)CC5)cc4)nc32)C1 [Example 151]
JAK1
  JAK 1 (pKi): E (E represents a pKi value of 7 or below (Ki of 100 nM or above))
JAK2
  JAK 2 (pKi): E (E represents a pKi value of 7 or below (Ki of 100 nM or above))
JAK3
  JAK 3 (pKi): B (B represents pKi value between 9 and 10 (Ki between 1 nM and 0.1 nM))
  JAK3 (pKi)-JAK1 (pKi): A (A represents a value of 3 or above)
Tyk2
  Tyk 2 (pKi): E (E represents a pKi value of 7 or below (Ki of 100 nM or above))
[1]
  Tall-1 (pIC50): C (C represents a pIC50 value between 6 and 6.7 (IC50 between 1 μM and 200 nM))
Caco-2 cell monolayers
  Caco Kp: A (A represents a value below 5×10^−6 cm/sec)

## C=CC(=O)N1CC(CCn2c(=O)ccc3cnc(Nc4ccc(N5CCC(F)(F)CC5)cc4)nc32)C1 [Example 157]
JAK1
  JAK 1 (pKi): E (E represents a pKi value of 7 or below (Ki of 100 nM or above))
JAK2
  JAK 2 (pKi): E (E represents a pKi value of 7 or below (Ki of 100 nM or above))
JAK3
  JAK 3 (pKi): A (A represents a pKi value≥10 (Ki≤0.1 nM))
  JAK3 (pKi)-JAK1 (pKi): A (A represents a value of 3 or above)
Tyk2
  Tyk 2 (pKi): E (E represents a pKi value of 7 or below (Ki of 100 nM or above))
[1]
  Tall-1 (pIC50): B (B represents a pC50 value between 6.7 (included) and 7.5 (IC50 between 200 nM and 32 nM))
Caco-2 cell monolayers
  Caco Kp: C (C represents a value between 10×10^−6 and 30×10^−6 cm/sec)
